For one assay, the target named is Human Cot (Homo sapiens (Human), UniProt P41279). In words: High Throughput Cot Biochemical Assay.
A further assay relates to TNFα. In words: Cot Monocyte TNFα Cell Based Assay.
[1] abbreviates: IC50 HTRF, Cot HTRF (TR-FRET KinEASE) biochemical assay, 400 μM ATP.
[2] abbreviates: Homo sapiens, Monocyte, read-out: EC50 TNF, LPS-stimulated human monocytes, TNFα TR-FRET.
The mark [3] stands for this setting: IC50 HTRF, Cot HTRF (TR-FRET) biochemical assay.
[4] abbreviates: Homo sapiens, Monocyte, read-out: EC50 TNF, LPS-stimulated human monocytes, TNFα.
Setting [5] is: read-out: IC50 HTRF, Cot HTRF (TR-FRET) biochemical assay.
Where [6] appears, read: read-out: EC50 TNF, LPS-stimulated human monocytes, TNFα.

SMILES strings stand for the structures. Like-named read-outs stand apart in the source and are kept apart here.

Chain of Human Cot (P41279 30-397): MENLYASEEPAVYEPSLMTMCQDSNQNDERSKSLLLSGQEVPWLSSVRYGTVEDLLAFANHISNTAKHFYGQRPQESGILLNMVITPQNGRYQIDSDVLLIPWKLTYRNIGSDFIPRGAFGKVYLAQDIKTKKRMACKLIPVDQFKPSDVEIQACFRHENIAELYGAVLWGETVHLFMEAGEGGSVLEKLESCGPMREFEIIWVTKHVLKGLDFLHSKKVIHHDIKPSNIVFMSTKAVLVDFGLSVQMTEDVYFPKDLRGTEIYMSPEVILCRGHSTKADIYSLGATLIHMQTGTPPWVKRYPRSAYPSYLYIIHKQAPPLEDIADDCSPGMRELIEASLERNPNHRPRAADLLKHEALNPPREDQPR

In the case of `Cn1ccc2c([C@H](Nc3cc(C#N)c4ncc(C#N)c(NCC(C)(C)C(F)(F)F)c4c3)c3cn(C4(C5CC5)CC4)nn3)cccc2c1=O` [Example 882, (S)-6-(((1-([1,1′-bi(cyclopropan)]-1-yl)-1H-1,2,3-triazol-4-yl)(2-methyl-1-oxo-1,2-dihydroisoquinolin-5-yl)methyl)amino)-4-((3,3,3-trifluoro-2,2-dimethylpropyl)amino)quinoline-3,8-dicarbonitrile], at Human Cot (setting [1]), the IC50 (commonly the concentration at which inhibition is half-maximal) came to 2 nM. Besides, the EC50 (commonly the concentration giving half of the maximal effect) in the assay with TNFα (setting [2]) came to 18 nM.

Consider `N#Cc1cnc2c(Cl)cc(N[C@@H](c3cccnc3)c3c[nH]nn3)cc2c1Nc1cnc(F)c(F)c1` [Example 207, (S)-8-chloro-4-((5,6-difluoropyridin-3-yl)amino)-6-((pyridin-3-yl(1H-1,2,3-triazol-4-yl)methyl)amino)quinoline-3-carbonitrile], for which the IC50 on Human Cot (setting [3]) was determined as 5 nM. The EC50 in the assay with TNFα (setting [4]) was 931 nM.

As to `[2H][C@](Nc1cc(Cl)c2ncc(C#N)c(Nc3c(F)ccc(Cl)c3F)c2c1)(c1ccc(F)nc1)c1cn(C2CC2)nn1` [Example 127, (S)-8-chloro-4-((3-chloro-2,6-difluorophenyl)amino)-6-(((1-cyclopropyl-1H-1,2,3-triazol-4-yl)(6-fluoropyridin-3-yl)methyl-d)amino)quinoline-3-carbonitrile], inhibition on Human Cot (setting [3]) was half-maximal at 16 nM (IC50). Besides, the EC50 in the assay with TNFα (setting [4]) is 194 nM.

In the case of `Cc1nc(F)ccc1[C@H](Nc1cc(Cl)c2ncc(C#N)c(NCC(C)(C)C(F)(F)F)c2c1)c1cn(C2(C3CC3)CC2)nn1` [Example 763, (S)-6-(((1-([1,1′-bi(cyclopropan)]-1-yl)-1H-1,2,3-triazol-4-yl)(6-fluoro-2-methylpyridin-3-yl)methyl)amino)-8-chloro-4-((3,3,3-trifluoro-2,2-dimethylpropyl)amino)-quinoline-3-carbonitrile], the IC50 on Human Cot (setting [3]) worked out at 3 nM. Further, the EC50 in the assay on TNFα (setting [4]) worked out at 40 nM.

In the case of `CC(C)(C)N1CCC(n2cc([C@@H](Nc3cc(Cl)c4ncc(C#N)c(Nc5ccc(F)c(Cl)c5)c4c3)c3cccnc3Cl)nn2)CC1` [Example 315, (S)-6-(((1-(1-(tert-butyl)piperidin-4-yl)-1H-1,2,3-triazol-4-yl)(2-chloropyridin-3-yl)methyl)arnino)-8-chloro-4-((3-chloro-4-fluorophenyl)amino)quinoline-3-carbonitrile], the IC50 on Human Cot (setting [5]) is 4 nM. In addition, in the assay on TNFα (setting [6]), the EC50 amounted to 132 nM.

Turning to `CC(C)(C)CNc1c(C#N)cnc2c(Cl)cc(N[C@H](c3cn(C4CC4)nn3)c3cccn4cncc34)cc12` [Example 446, (S)-8-chloro-6-(((1-cyclopropyl-1H-1,2,3-triazol-4-yl)(imidazo[1,5-a]pyridin-8-yl)methyl)amino)-4-(neopentylamino)-quinoline-3-carbonitrile], 3 nM corresponded to half-maximal inhibition against Human Cot (setting [3]) (IC50). The EC50 in the assay on TNFα (setting [4]) was found to be 156 nM.

Consider `CC(C)(C)CNc1c(C#N)cnc2c(C#N)cc(N[C@H](c3cn(C4(CO)CC4)nn3)c3cccc4ncsc34)cc12` [Example 465, (S)-6-((benzo[d]thiazol-7-yl(1-(1-(hydroxymethyl)cyclopropyl)-1H-1,2,3-triazol-4-yl)methyl)amino)-4-(neopentylamino)quinoline-3,8-dicarbonitrile], for which, on Human Cot (setting [3]), the midpoint of inhibition, the IC50, lay at 2 nM. In addition, the EC50 in the assay with TNFα (setting [4]) came out at 155 nM.

The molecule `Cc1cncc2cccc([C@H](Nc3cc(Cl)c4ncc(C#N)c(NCC(C)(C)C)c4c3)c3cn(C4(C(F)(F)F)CC4)nn3)c12` [Example 659, (S)-8-chloro-6-(((4-methylisoquinolin-5-yl)(1-(1-(trifluoromethyl)cyclopropyl)-1H-1,2,3-triazol-4-yl)methyl)amino)-4-(neopentylamino)quinoline-3-carbonitrile] yielded an IC50 against Human Cot (setting [3]) of 41 nM. The EC50 in the assay on TNFα (setting [4]) came out at 279 nM.

`[2H][C@](Nc1cc(Cl)c2ncc(C#N)c(Nc3cccc(Cl)c3OC)c2c1)(c1ccc(F)nc1)c1cn(C2CC2)nn1` [Example 94, (S)-8-chloro-4-((3-chloro-2-methoxyphenyl)amino)-6-(((1-cyclopropyl-1H-1,2,3-triazol-4-yl)(6-fluoropyridin-3-yl)methyl-d)amino)quinoline-3-carbonitrile]: 2 nM corresponded to half-maximal inhibition against Human Cot (setting [3]) (IC50). The EC50 in the assay on TNFα (setting [4]) turned out to be 130 nM.

`Cc1nc(F)ccc1[C@H](Nc1cc(Cl)c2ncc(C#N)c(NCC(C)(C)C)c2c1)c1cn(C(C)(C)C(F)(F)F)nn1` [Example 541, (S)-8-chloro-6-(((6-fluoro-2-methyl-pyridin-3-yl)(1-(1,1,1-trifluoro-2-methylpropan-2-yl)-1H-1,2,3-triazol-4-yl)methyl)amino)-4-(neopentylamino)-quinoline-3-carbonitrile] registered an IC50 against Human Cot (setting [3]) of 6 nM. In the assay with TNFα (setting [4]), the EC50 worked out at 180 nM.

As for `Cc1nc(F)ccc1[C@H](Nc1cc(Cl)c2ncc(C#N)c(NCC(C)(C)CC#N)c2c1)c1cn(C2(C(F)F)CC2)nn1` [Example 512, (S)-8-chloro-4-((3-cyano-2,2-dimethyl-propyl)amino)-6-(((1-(1-(difluoromethyl)-cyclopropyl)-1H-1,2,3-triazol-4-yl)(6-fluoro-2-methylpyridin-3-yl)methyl)amino)quinoline-3-carbonitrile], 10 nM corresponded to half-maximal inhibition at Human Cot (setting [3]) (IC50). The EC50 in the assay on TNFα (setting [4]) turned out to be 418 nM.

As for `Cc1nc(F)ccc1[C@H](Nc1cc(Cl)c2ncc(C#N)c(NCC(C)(C)C)c2c1)c1cn(C(C)(C)C2CC2)nn1` [Example 758, (S)-8-chloro-6-(((1-(2-cyclopropylpropan-2-yl)-1H-1,2,3-triazol-4-yl)(6-fluoro-2-methylpyridin-3-yl)methyl)amino)-4-(neopentylamino)quinoline-3-carbonitrile], at Human Cot (setting [3]), 4 nM corresponded to half-maximal inhibition (IC50). Moreover, the EC50 in the assay with TNFα (setting [4]) is 50 nM.

On to `CCC(F)(F)Cn1cc([C@@H](Nc2cc(Cl)c3ncc(C#N)c(NCC(C)(C)C)c3c2)c2ccc(F)nc2C)nn1` [Example 750, (S)-8-chloro-6-(((1-(2,2-ifluorobutyl)-1H-1,2,3-triazol-4-yl)(6-fluoro-2-methylpyridin-3-yl)methyl)amino)-4-(neopentylamino)quinoline-3-carbonitrile], for which the IC50 on Human Cot (setting [5]) was 11 nM. Besides, in the assay with TNFα (setting [6]), the 50% effective concentration (EC50) stood at 194 nM.

For `Cn1ncc2cccc([C@H](Nc3cc(Cl)c4ncc(C#N)c(NCC(C)(C)C)c4c3)c3cn(C4(C(F)F)CC4)nn3)c21` [Example 603, (S)-8-chloro-6-(((1-(1-(difluoromethyl)cyclo-propyl)-1H-1,2,3-triazol-4-yl)(1-methyl-1H-indazol-7-yl)methyl)amino)-4-(neopentyl-amino)quinoline-3-carbonitrile], the IC50 at Human Cot (setting [3]) amounted to 7 nM. Moreover, the EC50 in the assay on TNFα (setting [4]) came out at 107 nM.

Turning to `COc1nccc2c([C@H](Nc3cc(C#N)c4ncc(C#N)c(NCC(C)(C)C)c4c3)c3cn([C@@H](C)CF)nn3)cccc12` [Example 824, 6-(((S)-(1-((S)-1-fluoropropan-2-yl)-1H-1,2,3-triazol-4-yl)(1-methoxylsoquinolin-5-yl)methyl)amino)-4-(neopentylamino)quinoline-3,8-dicarbonitrile], the IC50 on Human Cot (read-out: IC50 HTRF, Cot HTRF (TR-FRET KinEASE) biochemical assay, 400 μM ATP) turned out to be 5 nM. Also, the EC50 in the assay with TNFα (read-out: EC50 TNF, LPS-stimulated human monocytes, TNFα TR-FRET) was 59 nM.

On to `CC(C)(C)CNc1c(C#N)cnc2c(C#N)cc(N[C@H](c3cn(C4(C(F)(F)F)CC4)nn3)c3cccc4cnccc34)cc12` [Example 470, (S)-6-((isoquinolin-5-yl(1-(1-(trifluoromethyl)cyclopropyl)-1H-1,2,3-triazol-4-yl)methyl)amino)-4-(neopentylamino)quinoline-3,8-dicarbonitrile], for which the IC50 on Human Cot (setting [3]) was determined as 2 nM. Moreover, the half-maximal effective concentration (EC50) with TNFα (setting [4]) worked out at 46 nM.

In the case of `Cc1nc(F)ccc1[C@H](Nc1cc(C#N)c2ncc(C#N)c(NCC(C)(C)C)c2c1)c1cn(CC(C)(F)F)nn1` [Example 836, (S)-6-(((1-(2,2-difluoropropyl)-1H-1,2,3-triazol-4-yl)(6-fluoro-2-methylpyridin-3-yl)methyl)amino)-4-(neopentylamino)quinoline-3,8-dicarbonitrile], 4 nM corresponded to half-maximal inhibition at Human Cot (setting [1]) (IC50). In addition, the EC50 in the assay with TNFα (setting [2]) was 52 nM.

As to `CC(C)(C)CNc1c(C#N)cnc2c(C#N)cc(N[C@H](c3cn(C4CCN(C(C)(C)C)CC4)nn3)c3cccc4ncsc34)cc12` [Example 420, (S)-6-((benzo[d]thiazol-7-yl(1-(1-(tert-butyl)piperidin-4-yl)-1H-1,2,3-triazol-4-yl)methyl)amino)-4-(neopentyl-amino)quinoline-3,8-dicarbonitrile], it took 2 nM to reach half-maximal inhibition on Human Cot (setting [3]) (IC50). Besides, in the assay with TNFα (setting [4]), the EC50 amounted to 25 nM.

`Cn1cc2cccc([C@H](Nc3cc(Cl)c4ncc(C#N)c(NCC(C)(C)C)c4c3)c3cn(C4(C(F)(F)F)CC4)nn3)c2n1` [Example 570, (S)-8-chloro-6-(((2-methyl-2H-indazol-7-yl)(1-(1-(trifluoromethyl)cyclopropyl)-1H-1,2,3-triazol-4-yl)methyl)amino)-4-(neopentylamino)quinoline-3-carbonitrile] displayed an IC50 at Human Cot (setting [3]) of 184 nM. In the assay with TNFα (setting [4]), the EC50 is 1000 nM.

Consider `[2H][C@](Nc1cc(Cl)c2ncc(C#N)c(NCC(C)(C)C)c2c1)(c1ccc(F)nc1)c1cn(CC(=O)O)nn1` [Example 85, (S)-2-(4-(((8-chloro-3-cyano-4-(neopentylamino)quinolin-6-yl)amino)(6-fluoropyridin-3-yl)methyl-d)-1H-1,2,3-triazol-1-yl)acetic acid], for which it took 4 nM to reach half-maximal inhibition on Human Cot (setting [3]) (IC50). The EC50 in the assay on TNFα (setting [4]) was over 1000 nM.

For the molecule `Cc1ncsc1[C@H](Nc1cc(Cl)c2ncc(C#N)c(Nc3cccc(Cl)c3F)c2c1)c1cn(C2CCN(C(C)(C)C)CC2)nn1` [Example 253, (R)-6-(((1-(1-(tert-butyl)piperidin-4-yl)-1H-1,2,3-triazol-4-yl)(4-methylthiazol-5-yl)methyl)amino)-8-chloro-4-((3-chloro-2-fluorophenyl)amino)quinoline-3-carbonitrile], at Human Cot (setting [3]), the IC50 is 4 nM. The EC50 in the assay with TNFα (setting [4]) was 66 nM.

Values taken from patent US11066414B2, “Cot modulators and methods of use thereof” (Gilead Sciences, Inc., priority 2015, dated 2021).
